One data set has as its system wildtype p53. Nature of the data set: DLS detection with PUMA-AuNP nano-dumbbell probes of wtp53-RE binding in anticancer drug treated PonA induced H1299 cell lysates. As to conditions: drug-treated PonA induced p53 H1299 cell lysate, versus untreated lysate. The data set is classed as cell-based. From the text:
To investigate the applicability of the assay in accordance with the present embodiment to cell lysates, the H1299 Ecdysone-Inducible (EI) system for controllable and constitutive expression of p53 in H1299 cells induced by ponasterone A (PonA) was used. Referring to FIG. 7, bar graphs 700, 750 depict cell lysate analysis statistics in accordance with the present embodiment. The bar graph 700 plots size along the y-axis 704 and depicts wildtype p53 cell lysate 710 and three mutant p53 cell lysates: G245S 712, R273H 714 and R175H 716. The p53 null cell lysate (EI) 718, which serves as a negative control, gives negligible size shift from that of the PUMA-AuNP nano-dumbbell probes 720. Remarkably, clear distinctions between cell lysates with wtp53 710 and the DNA contact mutant retaining native structure (R273H) 714, the weakly stabilized mutant (G245S) 712 and the globally denatured mutant (R175H) 716 can be observed in the bar graph 700. Thus, it can be seen from the analytical results in the graph 700 that the bioassay in accordance with the present embodiment is not only sensitive and selective in the context of purified proteins but also applicable to highly complex biological samples.
Referring to FIG. 7B, the bar graph 750 plots size along the y-axis 754 and depicts detection of wildtype p53 in PonA induced p53 cell lysates 760 versus a […] cell lysate (EI) 762 (used together with the PUMA-AuNP nano-dumbbell probes 763 as a negative control), and an anticancer drug including ActD-treated 764, Dox-treated 766, and Etoposide-treated cell lysate 768.

For the next data set, the target named is T1, mutant p53 (R273H) (Homo sapiens, UniProt P04637, R273H).
T1 construct: expressed in transfected cells; host or cells: PonA induced H1299 cells
Nature of the data set: Mutant p53 reactivation drug screening in PonA induced H1299 cells, DLS with PUMA-AuNP nano-dumbbell probes. Type of data set: cell-based. Here is the method: (§1) The ability to clearly distinguish wildtype p53 from mutant p53 in cell lysates provides the potential of the assay in accordance with the present embodiment for screening drugs that can effectively reactivate mutant p53 directly in cells and recovered the biological samples from cell lysates for detection. FIG. 9 depicts a schematic diagram 900 showing the process of mutant reactivation drug screening. Incubation of drug with live cancer cells expressing mutant p53 for reactivation is performed 910 (Step 1). The drug treated cells are then chemically lysed 920 (Step 2). The resultant cell lysates are next subjected 930 to incubation with p53-RE functionalized AuNP nano-dumbbell probes (Step 3). The obtained DLS readout allow evaluation of whether the drug applied has successfully reactivated mutant p53 to restore its binding affinity to RE. Failure in p53 reactivation will give rise to no change in the position of the DLS signal in accordance with the present embodiment.
(§2) Referring back to Step 1, drugs to be tested are first incubated 912 with live cancer cells expressing mutp53 proteins. Drugs are then uptaken 914 by the cells and interact with the mutp53 proteins. The drug treated cancer cells are subsequently lysed at Step 2 (920) to obtain crude cell lysates. These cell lysates are incubated with RE-AuNP probes and DLS is finally employed to evaluate the efficiency of mutp53 reactivation 932. If the reactivation is successful 934, the reactivated p53 protein will have a restored binding toward the RE, thus leading to increase in the diameter of the p53 RE-AuNP probes as measured 936 by DLS. In contrast, failure in reactivation 938 will not restore the binding of mutp53 protein to the RE sequence on the nano-dumbbell probes, thus no change in DLS signal is measured 940. Thus, the bioassay in accordance with the present embodiment is able to evaluate the extent of mutant reactivation by comparing the DLS signal obtained with the wtp53 binding to RE. The effective concentration of drugs for reactivation can also be determined by performing a series of concentration-dependent experiments during cell reactivation
However, the NSC drug has no effect at either low concentrations 1068 or high concentrations 1070 due to its specificity only to R175H mutant.

Another data set concerns the target T2, mutant p53 (R175H) (Homo sapiens, UniProt P04637, R175H).
T2 construct: expressed in transfected cells; host or cells: PonA induced H1299 cells
The data set is described as above. Type of data set: cell-based. The protocol: as §1, §2
The bar graphs 1000, 1050 plot particle size along the y-axis 1004, 1054 and depict screening of mutant reactivation drugs.

Another data set has as its system wtp53 in HCT116 cells. Nature of the data set: DLS detection with PUMA-AuNP nano-dumbbell probes of wtp53 expression level in drug treated HCT116 cell lysates. The data set is classed as cell-based. As to conditions: HCT116 cell lysate after Mdm2 inhibitor treatment, mixed with PUMA-AuNP probes. From the text: Referring to FIG. 8, detection of wtp53 expression level in drug treated HCT116 cell lysates in accordance with the present embodiment is depicted in a bar graph 800. Besides the H1299 Ecdysone-Inducible cell lines, the effect of Mdm2 inhibitors such as nutlin 810, pm2 812, and vip82 814 on HCT116 cells was investigated. These inhibitors could inhibit Mdm2 targeted wtp53 degradation so that the wtp53 protein level in the HCT116 cell lysate will increase with the concentration of the drug applied. […] However, the extent of size increase is not as high as what was observed upon anticancer drug treatment presented. One possible explanation is that PUMA-AuNP nano-dumbbell probes are sensitive to detect activated wtp53 with enhanced binding to RE, whereas the over-expression of wtp53 may not enhance DNA binding.

The next data set deals with p53 (Homo sapiens, UniProt P04637). Nature of the data set: Dissociation constant (KD) of p53 for DNA promoter sequences (Table 1). The data set is classed as binding. Conditions: concentration of p53 for 50% of the DNA to be bound; free dsDNA sequence. From the text:
As aforestated, the p53 protein is a transcription factor which will bind specifically to DNA that contains RE sequences. In nature, wildtype p53 protein will bind to many promoter sequences and subsequently activate a wide range of genes for DNA repair, cell cycle arrest, apoptosis and its own degradation. As shown hereinabove, the bioassay in accordance with the present embodiment can be used for DNA selectivity study by conjugating different RE sequences to the AuNPs. However, it would be technically tedious to carry out conjugation for each DNA sequence and then screen for the binding affinity of a large number of promoter sequences. Therefore, a convenient competition assay which requires only one set of p53 RE-linked AuNPs has been designed in accordance with the present embodiment to evaluate the binding affinity of p53 protein to various promoter sequences listed in Table 1. This competition assay further allows the identification of the specific downstream pathway that is triggered upon p53 activation or reactivation, providing crucial information on the drug validation and outcome of the drug action.
The dissociation constant (KD) is defined as the concentration of p53 for 50% of the DNA to be bound. The lower the KD value, the stronger the binding affinity between wtp53 and the tested free DNA sequence. Thus, a smaller change in the size of the complex bound probes is expected due to the competitive binding of wtp53 between the free DNAs and conjugated RE sequences on AuNPs. […] Application of this assay to the activated or reactivated p53 proteins enables determination of which promoter sequence binds strongly and consequently identifies its downstream targets (apoptosis, cell cycle arrest or DNA repair).

The mark [1] stands for this setting: high concentrations (++): COTI-2 1 μM, Prima-1^met 20 μM, NSC 3 μM.
Where [2] appears, read: low concentrations (+): NSC 0.3 μM.

The source of these data is patent US20180172678A1, “Dynamic Light Scattering Nanoplatform For High-Throughput Drug Screening” (Agency for Science, Technology and Research, priority 2016, published 2018).

*1 amine or outer side, *2 acyl side, *3 side chain or, on linkers, in order; H or OH if unused. Where a SMILES comes first, the peptide text is derived from it. Bridges are numbered along the chain shown (N, C = ends). Roman numbers before positions name the chains, in order. [ ]: non-standard residue; d: D form. Actinocin(9to1) = Cc1c2oc3c(C)ccc(C(=O)[*:1])c3nc-2c(C(=O)[*:2])c(N)c1=O; NMeV = CN[C@H](C(=O)O)C(C)C; Sar = CNCC(=O)O

For `Cc1c2oc3c(C)ccc(C(=O)N[C@@H]4C(=O)N[C@H](C(C)C)C(=O)N5CCC[C@H]5C(=O)N(C)CC(=O)N(C)[C@@H](C(C)C)C(=O)O[C@@H]4C)c3nc-2c(C(=O)N[C@@H]2C(=O)N[C@H](C(C)C)C(=O)N3CCC[C@H]3C(=O)N(C)CC(=O)N(C)[C@@H](C(C)C)C(=O)O[C@@H]2C)c(N)c1=O` [ActD, actinomycin D] (I: T[dV]P[Sar][NMeV] / II: T[dV]P[Sar][NMeV]; ester I:1-I:C, II:1-II:C; linker I:N-II:N via Actinocin(9to1)), in the data set on wildtype p53, the “activation of wtp53 binding to the RE (DLS particle diameter of PUMA-AuNP probes)” value (“activation of wtp53 binding to the RE” below) is “larger diameter”. Turning to `S=C(N/N=C1\CCCc2cccnc21)N1CCN(c2ccccn2)CC1` [COTI-2], the “reactivation of mutant p53 (R273H) to bind with PUMA-AuNP probes” value (“reactivation of mutant p53 (R273H)” for short) on mutant p53 (R273H) (setting [1]) was “successful reactivation”; at mutant p53 (R273H) (setting [2]), “not at low concentrations”. The “reactivation of mutant p53 (R175H) to bind with PUMA-AuNP probes” value (shortened to “reactivation of mutant p53 (R175H)”) is “successful reactivation” on mutant p53 (R175H) (setting [1]) and “not at low concentrations” on mutant p53 (R175H) (setting [2]). Consider `COc1cccc2c1C(=O)c1c(O)c3c(c(O)c1C2=O)C[C@@](O)(C(=O)CO)C[C@@H]3O[C@H]1C[C@H](N)[C@H](O)[C@H](C)O1` [Dox, doxorubicin], for which, in the data set with wildtype p53, the “activation of wtp53 binding to the RE” value is given as “larger diameter”.

In the case of `COc1cc([C@@H]2c3cc4c(cc3[C@@H](O[C@@H]3O[C@@H]5CO[C@@H](C)O[C@H]5[C@H](O)[C@H]3O)[C@H]3COC(=O)[C@H]23)OCO4)cc(OC)c1O` [Etoposide, etoposide], the “activation of wtp53 binding to the RE” value in the data set on wildtype p53 was “larger diameter”. Turning to `CC(=NNC(=S)N1CC2CCC(CC2)C1)c1ccccn1` [NSC], the “reactivation of mutant p53 (R273H)” value at mutant p53 (R273H) (setting [1]) and at mutant p53 (R273H) (setting [2]) was “no effect” each time. In addition, the “reactivation of mutant p53 (R175H)” value at mutant p53 (R175H) (setting [1]) and on mutant p53 (R175H) (setting [2]) was “shows effect” throughout.

Consider `COCC1(CO)C(=O)C2CCN1CC2` (stereo not shown) [Prima-1^met], for which the “reactivation of mutant p53 (R273H)” value on mutant p53 (R273H) (setting [1]) is recorded as “successful reactivation”; on mutant p53 (R273H) (setting [2]), “not at low concentrations”. In addition, the entries for the “reactivation of mutant p53 (R175H)” value on mutant p53 (R175H) (setting [1]) and on mutant p53 (R175H) (setting [2]) were “successful reactivation” and “not at low concentrations”, respectively. With `COc1ccc(C2=NC(c3ccc(Cl)cc3)C(c3ccc(Cl)cc3)N2C(=O)N2CCNC(=O)C2)c(OC(C)C)c1` (stereo not shown) [nutlin], the “wtp53 level in cell lysate detected by DLS size increase” value in the data set on wtp53 in HCT116 cells is on record as “increased wtp53 level”. As a reminder, the Kd is the constant that tells how readily two partners part at equilibrium. High values mean weaker binding, low ones tighter binding. On to “Bax a: p53 promoter dsDNA sequence, gene function apoptosis (sense TCATTCACAAGTTAGAGACAAGCCTAGCTC; antisense GAGCTAGGCTTGTCTCTAACTTGTGAATGA; DNA, backbone not given here)”, for which the Kd with p53 was determined as 73 ± 33 nM. Consider “GADD45: p53 promoter dsDNA sequence, gene function DNA repair (sense ATCATGAACATGTCTAAGCATGCTGAGCTC; antisense GAGCTCAGCATGCTTAGACATGTTCATGAT; DNA, backbone not given here)”, for which, in the data set with p53, binding was characterised by a dissociation constant (Kd) of 7.7 ± 1.2 nM.

B1: ConA: Artificial consensus p53-binding dsDNA sequence; positive control (nucleic acid)
sense: GTTAGAGGGGCATGTCCGGGCATGTCCGGGCAGA
antisense: CAATCTCCCCGTACAGGCCCGTACAGGCCCGTCT
modifications: chemistry not given here; one strand is listed 3' to 5'
notes: positive control
Consider B1, for which binding with p53 was put at a Kd of 3 nM.
